Laboratory results reported in patent US20070004724A1, “(+)-(2S,3s)-2-(3-chlorophenyl)-3,5,5-trimethyl-2-morpholinor for treating anxiety” (priority 2003, published 2007).
Counter-ions that a name gives are not always drawn.

Tests used:
[1] = test system: cell-lines expressing human monoamine transporters; assay: Compound-induced cytotoxicity in the transporter cell-lines; type: cell-based; settings: at any of the concentrations causing reuptake inhibition
Male Sprague Dawley rats [2] = assay: Social interaction test in rats, chronic study; type: in vivo, rat; settings: for Time spent in active social interaction / Number of line crossings: average±s.e.; for Number of line crossings: motor activity
Experimental: (§1) Social Interaction Test in Rats [Animal Models for Predicting Clinical Efficacy of Anxiolytic Drugs: Social Behaviour. Neuropsychobiology. 13 (1-2) 55-62, 1985]
(§2) Male Sprague Dawley rats (350-400 g at day of test, Charles River, Italy) were individually housed for five days before the test session. The 15 minutes social interaction test was performed between 9:00 to 14:00. Pairs of rats, weight and treatment matched, were placed in the test arena under high light condition. Active social interaction (sniffing, following, grooming, biting, boxing, crawling over and under) and motor activity, in terms of line crossing were scored by an observer blind to the drug treatment. The animals were treated orally with vehicle (2 ml/kg) or with the hydrochloride salt of the compound of formula (I) at 3, 10 and 30 mg/kg, 45 minutes prior to the test (acute study), or for 20 days twice a day and with a final treatment given on day 21, the last treatment given 45 minutes before the test (chronic study). An additional group of rats (positive control group) received a single oral dose of chlordiazepoxide (CDP) 4 mg/kg 1 hour before testing.
The results of the chronic study are given below in Table 3 (values given as average±s.e.), with the data for social interaction also illustrated in FIG. 1.

CD-1 mice = assay: Light & dark box test in mice; type: in vivo; settings: 3 mg/kg oral, 30 minutes before test
Text: Light & Dark Box Test in Mice [Costall B. Jones B J. Kelly […]. and Tomkins D M. Exploration of Mice in a Black and White Test Box: Validation as a Model of Anxiety. Pharmacology, Biochemistry & Behavior. 32 (3):777-85, 1989] The light-dark box test consists of a Perspex box which is divided into two compartments, two-thirds of which is painted white and the remaining third is painted black. Mice are able to move freely between the two compartments using a small gap in the wall separating the two compartments. The floor is marked with lines, which provided an index of motor activity of the animals (number of line crossings). A white light (60 W) is placed over the white compartment of the box to provide a brightly-lit area which the animals find aversive. Mice tend to escape from this area preferring to remain in the black area, returning only occasionally to explore the white area. […] CD-1 mice (25-30 g, Charles River, Italy) were placed individually into the centre of the white side of the black/white test box for the 5 min test period and the behaviour of the mice was recorded by remote video recording. Behaviour of the mice was assessed subsequently from the tape recordings by an observer who was unaware of the animals' treatment. Different parameters were assessed to estimate both the anxiolytic and the sedative effects of the compound tested. […]

[3] = biological target: T1, dopamine (DA) uptake, synaptosomes from rat caudoputamen (Rattus norvegicus, UniProt P23977); assay: In vitro synaptosomal uptake of [3H]-dopamine; type: biochemical; settings: [3H]-dopamine uptake, mean ± SEM of 3 experiments
T1 construct: Synaptosomes for use in obtaining in vitro uptake data were prepared from hypothalamus or striatum; from tissue; host or cells: rat caudoputamen (striatum) synaptosomes
T1 sequence (P23977 whole entry): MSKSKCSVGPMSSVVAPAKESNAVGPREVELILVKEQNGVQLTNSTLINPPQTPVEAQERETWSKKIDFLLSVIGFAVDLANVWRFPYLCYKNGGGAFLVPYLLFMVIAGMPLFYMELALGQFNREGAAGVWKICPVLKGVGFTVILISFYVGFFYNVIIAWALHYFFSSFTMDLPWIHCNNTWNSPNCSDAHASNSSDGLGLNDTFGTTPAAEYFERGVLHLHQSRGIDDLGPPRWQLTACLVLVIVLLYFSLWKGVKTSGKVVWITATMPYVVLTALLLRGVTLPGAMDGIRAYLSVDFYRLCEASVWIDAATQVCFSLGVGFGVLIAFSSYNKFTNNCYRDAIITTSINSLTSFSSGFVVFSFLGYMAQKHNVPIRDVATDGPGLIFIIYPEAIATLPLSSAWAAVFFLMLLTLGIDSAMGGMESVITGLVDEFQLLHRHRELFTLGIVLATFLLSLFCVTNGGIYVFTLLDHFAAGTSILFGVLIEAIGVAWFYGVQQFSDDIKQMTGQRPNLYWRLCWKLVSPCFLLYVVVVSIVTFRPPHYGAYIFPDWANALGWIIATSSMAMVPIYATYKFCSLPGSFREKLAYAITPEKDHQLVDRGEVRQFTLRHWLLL
Experimental: In vitro uptake was determined, as reported previously, using synaptosomes prepared from rat caudoputamen (for dopamine uptake) and hypothalamus (for NA and serotonin uptake) using [^3H]-dopamine, [^3H]-NA and [^3H]-serotonin as transport substrates, respectively. See Eckhardt, S. B., R. A. Maxwell, and R. M. Ferris, A Structure-Activity Study of the Transport Sites for the Hypothalamic and Striatal Catecholamine Uptake Systems. Similarities and differences. Molecular Pharmacology, 21: p. 374-9, 1982.
Synaptosomes for use in obtaining in vitro uptake data were prepared from hypothalamus or striatum by gently homogenizing the tissue in a 0.3 M sucrose/25 mM Tris pH 7.4 buffer containing iproniazid phosphate to inhibit monoamine oxidase. The homogenate was centrifuged at 1100×g at 4° C. for 10 min and the supernatant was used for uptake studies. […] Under these conditions uptake was linear with respect to both for substrate and tissue (with <5% total substrate transported). Non-specific uptake was defined as uptake at 0° C. [^3H]-substrate, which had been transported into synaptosomes, was separated from free [^3H]-substrate by filtration over GF/B filters and washing with cold Krebs-Henseleit buffer. The filters were counted for tritum in a liquid scintillation spectrometer.

[4] = biological target: T2, serotonin uptake, synaptosomes from rat hypothalamus (Rattus norvegicus, UniProt P31652); assay: In vitro synaptosomal uptake of [3H]-serotonin; type: biochemical
T2 construct: Synaptosomes for use in obtaining in vitro uptake data were prepared from hypothalamus or striatum; from tissue; host or cells: rat hypothalamus synaptosomes
T2 sequence (P31652 whole entry): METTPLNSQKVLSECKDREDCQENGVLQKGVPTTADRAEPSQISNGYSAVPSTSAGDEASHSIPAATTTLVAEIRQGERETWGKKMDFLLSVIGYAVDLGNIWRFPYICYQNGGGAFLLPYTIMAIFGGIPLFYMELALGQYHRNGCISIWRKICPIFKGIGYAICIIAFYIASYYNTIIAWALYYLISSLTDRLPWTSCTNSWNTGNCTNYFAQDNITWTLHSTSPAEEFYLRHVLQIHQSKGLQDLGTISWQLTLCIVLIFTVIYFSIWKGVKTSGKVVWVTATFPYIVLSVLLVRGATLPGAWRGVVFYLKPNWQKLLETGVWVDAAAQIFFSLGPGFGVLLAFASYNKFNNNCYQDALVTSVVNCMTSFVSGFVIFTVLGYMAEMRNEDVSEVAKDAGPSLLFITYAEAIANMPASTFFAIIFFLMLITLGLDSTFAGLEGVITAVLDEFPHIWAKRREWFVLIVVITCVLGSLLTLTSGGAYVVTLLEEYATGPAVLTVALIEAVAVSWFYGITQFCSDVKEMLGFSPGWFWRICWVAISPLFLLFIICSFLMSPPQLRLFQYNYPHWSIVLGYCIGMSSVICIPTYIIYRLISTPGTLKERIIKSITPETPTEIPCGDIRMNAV
Text: Similarities and differences. Molecular Pharmacology, 21: p.

Male Sprague Dawley rats [5] = assay: Social interaction test in rats, acute study; type: in vivo; settings: acute rat social interaction study
Experimental: as §1, §2
The results for social interaction in the acute study are illustrated in FIG. 2.

[6] = chronic study, at 3 and 10 mg/kg oral

C[C@@H]1NC(C)(C)CO[C@@]1(O)c1cccc(Cl)c1 [Formula (I). HCl, (+)-(2S,3S)-2-(3-chlorophenyl)-3,5,5-trimethyl-2-morpholinol hydrochloride]
cytotoxicity [1]: No cytotoxicity was observed | Time spent in active social interaction (Male Sprague Dawley rats [2]; chronic study, 3 mg/kg oral twice a day 20 days + day 21, 45 min before test, n=14): 114.0 ± 11.5 s | Time spent in active social interaction (Male Sprague Dawley rats [2]; chronic study, 10 mg/kg oral twice a day 20 days + day 21, 45 min before test, n=10): 126.4 ± 13.8 s | Time spent in active social interaction (Male Sprague Dawley rats [2]; chronic study, 30 mg/kg oral twice a day 20 days + day 21, 45 min before test, n=14): 97.6 ± 8.7 s | effect on social interaction (Male Sprague Dawley rats [2]; chronic study, at 30 mg/kg oral): lack of effect on social interaction | effect on locomotor activity (Male Sprague Dawley rats [2]; chronic study, at 30 mg/kg oral, compared to vehicle): significant reduction in locomotor activity | anxiolytic-like effect in social interaction test (Male Sprague Dawley rats [2]; [6]): able to induce an anxiolytic-like effect | effect on locomotor activity (Male Sprague Dawley rats [2]; [6]): without any significant effects on locomotor activity | Number of line crossings (Male Sprague Dawley rats [2]; chronic study, 3 mg/kg oral, n=14): 587.0 ± 29.1 | Number of line crossings (Male Sprague Dawley rats [2]; chronic study, 10 mg/kg oral, n=10): 571.0 ± 44.1 | Number of line crossings (Male Sprague Dawley rats [2]; chronic study, 30 mg/kg oral, n=14): 476.2 ± 42.6 | anxiolytic-like effect in light & dark box test (CD-1 mice): able to induce an anxiolytic-like effect

CNC1=Nc2ccc(Cl)cc2C(c2ccccc2)=[N+]([O-])C1 [CDP, chlordiazepoxide, reference compound]
Number of line crossings (Male Sprague Dawley rats [2]; positive control, single oral dose 4 mg/kg, n=14): 560.1 ± 29.6 | Time spent in active social interaction, % (change relative to vehicle) (Male Sprague Dawley rats [2]; positive control, single oral dose 4 mg/kg): 53.2% | Time spent in active social interaction (Male Sprague Dawley rats [2]; positive control, single oral dose 4 mg/kg 1 hour before testing, n=14): 124.4 ± 10.7 s

C[C@@H]1NC(C)(C)CO[C@@]1(O)c1cccc(Cl)c1 [Formula (I), (+)-(2S,3S)-2-(3-chlorophenyl)-3,5,5-trimethyl-2-morpholinol]
IC50 [3]: 9.3 ± 0.41 µM | IC50 [4]: > 30 µM | inhibition of serotonin uptake ([4]; at 30 μM): no inhibition | anxiogenic activity (Male Sprague Dawley rats [5]): lack of anxiogenic activity
